Assays:
HEK293E cells = experiment: Multiple VPA additions, IgG batch titer by ELISA (Example 3); assay type: cell-based, Human; details: day 10 after transfection
Description: 10 million suspension-adapted HEK293E cells were resuspended in 0.5 ml of Ex-Cell 293 HEK 293 serum-free medium with 4 mmol/l L-glutamine (Cat. No. 14571C-[…]; Lot No. 6A0093; SAFC Biosciences, Lenexa, Kans., USA, “Ex-Cell” medium; note: “Ex-Cell” medium-as used herein-refers to a medium comprising 4 mmol/l L-glutamine) in a 50-ml filter tube each (TPP AG, Trasadingen, Switzerland; Cat. No. 87050, Lot 20050174). In a separate set, 10 million suspension-adapted CHO DG44 cells were resuspended in 0.5 ml of ProCHO5 serum-free medium with 4 mmol/[…] hypoxanthine and 0.194 g/l thymidine (BioWhittaker (Lonza), Belgium; Cat. No. BE12-[…]; Lot No. 7 MB0040; “ProCHO5” medium; note: “ProCHO5” medium-as used herein-refers to a medium comprising 4 mmol/[…] hypoxanthine and 0.194 g/l thymidine) in a 50-ml filter tube each (TPP AG, Trasadingen, Switzerland; Cat. No. 87050, Lot 20050174). Then 12.5 μg plasmid DNA at a concentration of 1 μg/μl was added in each tube with the following composition 50% (6.25 μg) p-LC (SEQ ID NO: 1) 50% (6.25 μg) p-HC (SEQ ID NO: 3). Plasmid p-LC comprises the genetic information for the production of the light chain of an IgG antibody, plasmid p-HC comprises the genetic information for the production of the heavy chain of an IgG antibody. The particular vector constructs used in the present invention can also be obtained from the inventors. The inventors can be contacted via e-mail at […]. […] In short, Goat anti-human kappa light chain IgG (Biosource) was used for coating the ELISA-plates, and with AP-conjugated goat anti-human gamma chain IgG (Biosource) the synthesized IgG1 was detected. […] Absorption was measured at 405 nm against 490 nm using a microplate reader (SPECTRAmaxTM340; Molecular Devices, Palo Alto, Calif., USA).

CHO DG44 cells = experiment: Alternative transgene TNFR-Fc, batch titer by ELISA (Example 4); assay type: cell-based, Chinese Hamster; details: 0.5 mmol/l final VPA, day 5 after transfection
Description: 10 million suspension-adapted HEK293E cells were resuspended in 0.5 ml of Ex-Cell 293 HEK 293 serum-free medium with 4 mmol/l L-glutamine (Cat. No. 14571C-[…]; Lot No. 6A0093; SAFC Biosciences, Lenexa, Kans., USA, “Ex-Cell” medium; note: “Ex-Cell” medium-as used herein-refers to a medium comprising 4 mmol/l L-glutamine) in a 50-ml filter tube each (TPP AG, Trasadingen, Switzerland; Cat. No. 87050, Lot 20050174). In a separate set, 10 million suspension-adapted CHO DG44 cells were resuspended in 0.5 ml of ProCHO5 serum-free medium with 4 mmol/[…] hypoxanthine and 0.194 g/l thymidine (BioWhittaker (Lonza), Belgium; Cat. No. BE12-[…]; Lot No. 7MB0040; “ProCHO5” medium; note: “ProCHO5” medium-as used herein-refers to a medium comprising 4 mmol/[…] hypoxanthine and 0.194 g/l thymidine) in a 50-ml filter tube each (TPP AG, Trasadingen, Switzerland; Cat. No. 87050, Lot 20050174). […] In short, Goat Anti-Human IgG (Fc Fragment specific; Jackson ImmunoResearch Laboratories Inc., West Grove, Pa., USA; Code Number 109-006-098; Lot No. 72349) was used for coating the ELISA-plates, and with AP-conjugated goat anti-human gamma chain IgG (Biosource) the synthesized TNFR-Fc was detected. […] Absorption was measured at 405 nm against 490 nm using a microplate reader (SPECTRAmaxTM340; Molecular Devices, Palo Alto, Calif., USA).

Structure (SMILES): CCCC(CCC)C(=O)O [VPA, valproic acid]
- Batch titer (HEK293E cells; 4 mmol/l VPA at day 0): 193 mg/L
- batch titers, direct addition versus slowly increasing concentration (HEK293E cells): statistically not different
- Batch titer (HEK293E cells; escalating dosage, 1 to 4 mmol/l in 1 mmol/l increments every other day): 182 mg/L
- Batch titer (CHO DG44 cells): 27.7 ± 3.7 mg/L
- Fold increase over control (CHO DG44 cells): 1.8 fold
